Active and inactive are the calls of the source. The rule behind the calls is not given here.
Columns and labels:
[1] = Induction of mitotic arrest in human RPE cells over expressing H2B-GFP-fused MYC assessed as minimum effective concentration for polyploidy measured after 24 hrs by fluorescence microscopy; assay type: functional; settings: read-out: MEC
[2] = Induction of mitotic arrest in human RPE cells over expressing H2B-GFP-fused MYC assessed as polyploidy cells in the interphase cell population at 40 uM measured after 72 hrs by fluorescence microscopy relative to control; assay type: functional
[3] = Induction of mitotic arrest in human RPE cells over expressing H2B-GFP-fused MYC assessed as minimum effective concentration for polyploidy measured after 24 to 72 hrs by fluorescence microscopy; assay type: functional; settings: time 24-72 hrs, read-out: MEC
[4] = Induction of mitotic arrest in human RPE cells over expressing H2B-GFP-fused MYC assessed as increase in polyploidy at 40 uM measured after 24 to 72 hrs by fluorescence microscopy; assay type: functional; settings: time 24-72 hrs
NCI-H23 [5] = test: Cytotoxicity against human NCI-H23 cells assessed as reduction in cell viability measured after 6 days by MTT assay; assay type: functional, cell-based; settings: time 6.0 day
MDA-MB-231 [6] = test: Cytotoxicity against human MDA-MB-231 cells assessed as reduction in cell viability measured after 6 days by MTT assay; assay type: functional, cell-based; settings: time 6.0 day
NCI-H460 = test: Cytotoxicity against human NCI-H460 cells assessed as reduction in cell viability measured after 6 days by MTT assay; assay type: functional, cell-based; settings: time 6.0 day
DU-145 [7] = test: Cytotoxicity against human DU-145 cells assessed as reduction in cell viability measured after 6 days by MTT assay; assay type: functional, cell-based; settings: time 6.0 day
HCT-116 [8] = test: Cytotoxicity against human HCT-116 cells assessed as reduction in cell viability measured after 6 days by MTT assay; assay type: functional, cell-based; settings: time 6.0 day
NCI-N87 [9] = test: Cytotoxicity against human NCI-N87 cells assessed as reduction in cell viability measured after 6 days by MTT assay; assay type: functional, cell-based; settings: time 6.0 day
NCI-H596 = test: Cytotoxicity against human NCI-H596 cells assessed as reduction in cell viability measured after 6 days by MTT assay; assay type: functional, cell-based; settings: time 6.0 day
A549 = test: Cytotoxicity against human A549 cells assessed as reduction in cell viability measured after 6 days by MTT assay; assay type: functional, cell-based; settings: time 6.0 day
Calu-6 = test: Cytotoxicity against human Calu-6 cells assessed as reduction in cell viability measured after 6 days by MTT assay; assay type: functional, cell-based; settings: time 6.0 day
NCI-N87 [10] = test: Cytotoxicity against human NCI-N87 cells assessed as reduction in cell proliferation at 10 uM measured after 3 days by MTT assay; assay type: functional, cell-based; settings: time 3.0 day
DU-145 [11] = test: Cytotoxicity against human DU-145 cells assessed as reduction in cell proliferation at 10 uM measured after 3 days by MTT assay; assay type: functional, cell-based; settings: time 3.0 day
MDA-MB-231 [12] = test: Cytotoxicity against human MDA-MB-231 cells assessed as reduction in cell proliferation at 10 uM measured after 3 days by MTT assay; assay type: functional, cell-based; settings: time 3.0 day
HCT-116 [13] = test: Cytotoxicity against human HCT-116 cells assessed as reduction in cell proliferation at 10 uM measured after 3 days by MTT assay; assay type: functional, cell-based; settings: time 3.0 day
NCI-H23 [14] = test: Cytotoxicity against human NCI-H23 cells assessed as reduction in cell proliferation at 10 uM measured after 3 days by MTT assay; assay type: functional, cell-based; settings: time 3.0 day
[15] = biological target: T1, Aurora kinase A (Homo sapiens) (UniProt O14965); test: Inhibition of AURKA in human RPE cells over expressing H2B-GFP-fused MYC assessed as reduction in autophosphorylation at Thr288 residues at 0.64 uM measured after 6 hrs by immunofluorescence assay; assay type: cell-based
T1 sequence (whole entry): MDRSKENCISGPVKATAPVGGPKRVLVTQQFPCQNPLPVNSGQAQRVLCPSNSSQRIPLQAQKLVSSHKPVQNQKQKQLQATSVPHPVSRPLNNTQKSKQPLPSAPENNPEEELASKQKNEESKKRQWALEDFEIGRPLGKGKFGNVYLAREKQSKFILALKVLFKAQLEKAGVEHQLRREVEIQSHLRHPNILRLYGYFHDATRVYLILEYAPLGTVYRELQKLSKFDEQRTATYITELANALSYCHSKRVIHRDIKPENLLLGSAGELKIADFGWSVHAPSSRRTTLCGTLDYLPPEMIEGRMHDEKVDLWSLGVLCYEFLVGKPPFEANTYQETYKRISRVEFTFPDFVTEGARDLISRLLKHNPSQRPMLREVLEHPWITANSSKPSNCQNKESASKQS

[16] = biological target: Aurora kinase B (Homo sapiens) (UniProt Q96GD4); test: Inhibition of AURKB in human RPE cells over expressing H2B-GFP-fused MYC assessed as reduction in phosphorylation at Ser10 residues at 200 nM using histone H3 as substrate measured after 6 hrs by immunofluorescence assay; assay type: cell-based
Sequence of Aurora kinase B (Homo sapiens) (Q96GD4 whole entry, the tested form may be a part): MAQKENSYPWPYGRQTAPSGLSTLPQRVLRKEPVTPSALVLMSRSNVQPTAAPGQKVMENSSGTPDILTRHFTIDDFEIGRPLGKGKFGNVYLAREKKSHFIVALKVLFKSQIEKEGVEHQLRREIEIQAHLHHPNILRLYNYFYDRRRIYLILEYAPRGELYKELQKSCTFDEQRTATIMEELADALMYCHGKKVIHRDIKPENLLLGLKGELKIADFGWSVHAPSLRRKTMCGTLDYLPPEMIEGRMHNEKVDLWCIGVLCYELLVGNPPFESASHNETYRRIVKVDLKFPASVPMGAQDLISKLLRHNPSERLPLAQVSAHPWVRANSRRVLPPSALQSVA

| SMILES | minimal effective concentration [3] [µM] | Activity [4] [%] | Activity (NCI-H23 [5]) | Activity (MDA-MB-231 [6]) | Activity (NCI-H460) | Activity (DU-145 [7]) | Activity (HCT-116 [8]) | Activity (NCI-N87 [9]) | Activity (NCI-H596) | Activity (A549) | Activity (Calu-6) | also measured |
| --- | --- | --- | --- | --- | --- | --- | --- | --- | --- | --- | --- | --- |
| COC(=O)C1=C(O)c2ccccc2NC(=O)C1 |  |  |  |  |  |  |  |  |  |  |  | minimal effective concentration [1]: 40 µM; Activity [2]: 50% |
| COC(=O)C1=C(O)c2ccccc2N(Cc2cccc(C)c2)C(=O)C1 | 40 | 10 |  |  |  |  |  |  |  |  |  |  |
| Cc1csc(-c2nnc(Nc3ccc(Oc4ncccc4-c4ccnc(N)n4)cc3)c3ccccc23)c1 |  |  | Active | Active | Active | Active | Active | Active | Active | Active | Active |  |
| COC(=O)C1=C(O)c2ccccc2N(Cc2ccccc2)C(=O)C1 | 40 | 50 |  |  |  |  |  |  |  |  |  |  |
| COC(=O)C1=C(O)c2ccccc2N(Cc2ccc(C)c(Cl)c2)C(=O)C1 | 5 | 100 |  |  |  |  |  |  |  |  |  |  |
| COC(=O)C1=C(O)c2ccccc2N(Cc2ccc(OC)c(F)c2)C(=O)C1 | 0.039 | 70 | Active | Active | Active | Active | Active | Active | Active | Active | Active | Activity (NCI-N87 [10]): Active; Activity (DU-145 [11]): Active; Activity (MDA-MB-231 [12]): Active; Activity (HCT-116 [13]): Active; Activity (NCI-H23 [14]): Active; inhibition [15]: Active |
| COC(=O)C1=C(O)c2ccccc2N(Cc2cccc(OC)c2)C(=O)C1 | 20 | 20 |  |  |  |  |  |  |  |  |  |  |
| COC(=O)C1=C(O)c2ccccc2N(Cc2ccc(C)c(C)c2)C(=O)C1 | 20 | 40 |  |  |  |  |  |  |  |  |  |  |
| COC(=O)C1=C(O)c2ccccc2N(Cc2ccc(C(C)(C)C)cc2)C(=O)C1 | 40 | 5 |  |  |  |  |  |  |  |  |  |  |
| COC(=O)C1=C(O)c2ccccc2N(Cc2ccc(C)c(F)c2)C(=O)C1 | 0.019 | 30 | Active | Active | Active | Active | Active | Active | Active | Active | Active | Activity (NCI-N87 [10]): Active; Activity (DU-145 [11]): Active; Activity (MDA-MB-231 [12]): Active; Activity (HCT-116 [13]): Active; Activity (NCI-H23 [14]): Active |
| COC(=O)C1=C(O)c2scc(C)c2N(Cc2ccc(C)c(F)c2)C(=O)C1 | 0.312 | 100 |  |  |  |  |  |  |  |  |  | Activity (NCI-N87 [10]): Active; Activity (DU-145 [11]): Active; Activity (MDA-MB-231 [12]): Active; Activity (HCT-116 [13]): Active; Activity (NCI-H23 [14]): Active |
| COC(=O)C1=C(O)c2ccccc2N(Cc2ccc(C#N)cc2)C(=O)C1 | 40 | 10 |  |  |  |  |  |  |  |  |  |  |
| CCc1ccc(CN2C(=O)CC(C(=O)OC)=C(O)c3ccccc32)cc1 | 0.078 | 10 | Active | Active | Active | Active | Active | Active | Active | Active | Active | Activity (NCI-N87 [10]): Active; Activity (DU-145 [11]): Active; Activity (MDA-MB-231 [12]): Active; Activity (NCI-H23 [14]): Active |
| COC(=O)C1=C(O)c2cc(F)ccc2N(Cc2ccc(C)c(F)c2)C(=O)C1 | 0.078 | 40 |  |  |  |  |  |  |  |  |  |  |
| CC[C@@H]1C(=O)N(C)c2cnc(Nc3ccc(C(=O)NC4CCN(C)CC4)cc3OC)nc2N1C1CCCC1 |  |  | Active | Active | Active | Active | Active | Active | Active | Active | Active |  |
| CCN(CCO)CCCOc1ccc2c(Nc3cc(CC(=O)Nc4cccc(F)c4)[nH]n3)ncnc2c1 |  |  |  |  |  |  |  |  |  |  |  | inhibition [16]: Active |
| COc1cc(Nc2ncc3c(n2)-c2ccc(Cl)cc2C(c2c(F)cccc2OC)=NC3)ccc1C(=O)O |  |  | Active | Active | Active | Active | Active | Active | Active | Active | Active |  |
| Cc1cc(Nc2cc(N3CCN(C)CC3)nc(Sc3ccc(NC(=O)C4CC4)cc3)n2)n[nH]1 |  |  | Active | Active | Active | Active | Active | Active | Active | Active | Active |  |
| COc1ccc2c(c1)[C@]1(C[C@H]1c1ccc3c(/C=C/c4ccc(CN5C[C@@H](C)O[C@@H](C)C5)cc4)n[nH]c3c1)C(=O)N2 |  |  | Active | Active | Active | Active | Active | Active | Active | Active | Active |  |
| COC(=O)C1=C(O)c2ccccc2N(Cc2ccc(F)cc2)C(=O)C1 | 40 | 50 |  |  |  |  |  |  |  |  |  |  |
| COC(=O)C1=C(O)c2ccccc2N(Cc2ccc(C)cc2)C(=O)C1 | 0.625 | 10 |  |  |  |  |  |  |  |  |  | Activity (NCI-N87 [10]): Active; Activity (DU-145 [11]): Active; Activity (MDA-MB-231 [12]): Active; Activity (HCT-116 [13]): Active; Activity (NCI-H23 [14]): Active |
| COC(=O)C1=C(O)c2ccccc2N(Cc2ccc(OC)cc2)C(=O)C1 | 0.156 | 80 | Active | Active | Active | Active | Active | Active | Active | Active | Active | Activity (NCI-N87 [10]): Active; Activity (DU-145 [11]): Active; Activity (MDA-MB-231 [12]): Active; Activity (HCT-116 [13]): Active; Activity (NCI-H23 [14]): Active |
| COC(=O)C1=C(O)c2ccccc2N(Cc2ccc(C)cc2C)C(=O)C1 | 1.25 | 100 |  |  |  |  |  |  |  |  |  |  |
| COC(=O)C1=C(O)c2cc(OC)c(OC)cc2N(Cc2ccc(C)c(F)c2)C(=O)C1 | 0.312 | 90 |  |  |  |  |  |  |  |  |  |  |
| COC(=O)C1=C(O)c2ccccc2N(Cc2cccc(F)c2)C(=O)C1 | 40 | 40 |  |  |  |  |  |  |  |  |  |  |
| COC(=O)C1=C(O)c2ccccc2N(Cc2ccc(C(F)(F)F)cc2)C(=O)C1 | 10 | 30 |  |  |  |  |  |  |  |  |  |  |
| COC(=O)C1=C(O)c2ccccc2N(Cc2ccc(C(C)C)cc2)C(=O)C1 | 20 | 70 |  |  |  |  |  |  |  |  |  |  |

From ChEMBL document CHEMBL5120932, “Discovery and Optimization of Seven-Membered Lactam-Based Compounds to Phenocopy the Inhibition of the Aurora Kinase B” (ACS Med Chem Lett, 2022)
